{
  "source": "patent US7264947B2",
  "about": "“Activity dependent neurotrophic factor III (ADNF III)” (United States of America, as represented by the Secretary …, priority 1997, dated 2007)",
  "key": {"[1]": {"test_system": "cerebral cortical cultures", "format": "cell-based, newborn rats", "details": "1 μM tetrodotoxin, five days; P<0.01"}, "[2]": {"test_system": "cerebral cortical cultures", "experiment": "neuroprotection against β-amyloid peptide (25-35) neurotoxicity in cerebral cortical cultures", "format": "cell-based, newborn rats", "details": "25 μM β-amyloid fragment 25-35, five days; P<0.01"}, "[3]": {"test_system": "cerebral cortical cultures", "experiment": "neuroprotection against NMDA toxicity in cerebral cortical cultures", "format": "cell-based, newborn rats", "details": "NMDA 10 μM"}, "[4]": {"test_system": "cerebral cortical cultures", "experiment": "neuroprotection against gp120 toxicity in cerebral cortical cultures", "format": "cell-based, newborn rats", "details": "1 pM gp120 (RFII isolate)"}, "[5]": {"test_system": "cerebral cortical cultures", "experiment": "protection from naturally occurring cell death in cerebral cortical cultures", "format": "cell-based, newborn rats", "details": "FIG. 6C, no toxin added"}, "[6]": {"experiment": "structure-activity studies of ADNF III peptides (FIGS. 7A and 7B)", "format": "cell-based"}, "AF64A-treated animals": {"test_system": "AF64A-treated animals", "experiment": "water maze, learning and memory deficiencies associated with cholinergic blockade (AF64A)", "format": "in vivo", "details": "rats, cholinotoxin AF64A, peptide intranasally; listed as NAPVSIPQ", "procedure": "Protection against learning and memory deficiencies associated with cholinergic blockade was evaluated. Cholinergic blockade was obtained in rats by administration of the cholinotoxin AF64A, NAPVSIPQ (SEQ ID NO:6), which was administered intranasally and the water maze experiments were performed as before (Gozes et al., Proc. Natl. Acad. Sci. USA 93:427-432 (1996), the teachings of which are incorporated herein by reference).\nThe ability of ADNF III polypeptides to protect against learning and memory deficiencies associated with cholinergic blockade was also investigated. Cholinergic blockade was obtained in rats by administration of the cholinotoxin AF64A, NAPVSIPQ (SEQ ID NO:6) (termed NAP in FIG. 8). NAPVSIPQ (SEQ ID NO:6) was administered intranasally and the water maze experiments were performed as before (Gozes et al., Proc. Natl. Acad. Sci. USA 93:427-432 (1996))."}, "[7]": {"test_system": "choline acetyl transferase", "experiment": "brain ChAT (choline acetyl transferase) activity in ApoE-deficient mice", "format": "in vivo", "details": "daily subcutaneous injections from birth to 14 days, measured at 21 days", "procedure": "The graph depicts incorporation of radio-labeled choline into acetylcholine. Experiments were conducted as described. Apo-E deficient mice are designated: ApoE; 100% activity in the control (C57B6) mice indicated 669758.4 pmole/mg protein/min. As the experiments were repeated 3-5 times the results were standardized against the control calibrated at 100% per each experiment. ApoE-deficient mice daily injected with peptides are designated ADNF-14, ADNF-9, and NAP, respectively.\nChAT activity was measured according to published procedures (Formum et al., Neurochem. 24:407-409 (1975)). Brains were homogenized with 10 volumes of 50 mM phosphate buffer containing 300 mM NaCl, 20 mM EDTA, and 0.5% triton. The homogenates were centrifuged at 12,000×g for 15 min., and […] of supernatant was mixed with […] of a solution of […] ^14C-acetyl CoA ([…] NEN), 20 mM acetylcholine, 1.6 mM choline chloride, 0.25 mM eserine, and phosphate buffer. Incubation was 15 min. at 37° C. The reaction was terminated and radioactivity was measured in a beta-counter. • 21. Apolipoprotein E (ApoE) Deficient Mouse Model\nApoE knockout mice and normal controls were a gift from the late Prof. Shlomo Eisenberg of Tel Aviv University, originally provided by Dr. J. L. Breslow (Plump et al., Cell 71:343-353 (1992)). The ApoE knockout mice were obtained from embryonic stem cells OLA 129 in C57B6×FVB mice (as described). Age-matched controls were inbred C57B6 mice. Groups of mouse pups were treated from birth until the age of 14 days. Daily subcutaneous injections included: […] saline (days 1 through 4), […] saline (days 5 through 10) and […] saline (days 11-14).\nChAT activity was measured according to published procedures (Formum et al., Neurochem. 24:407-409 (1975))."}, "ApoE-deficient mice": {"test_system": "ApoE-deficient mice", "experiment": "water maze, ApoE-deficient and control mice after treatment for the first two weeks of life", "format": "in vivo", "procedure": "Two daily water maze trials were performed on three week-old animals. Groups tested were: 1. control animals injected with vehicle for the first two weeks of life (35 animals of six different litters, with 5-7 animals from each litter, open circles); 2. ApoE-deficient animals injected with vehicle for the first two weeks of life (18 animals derived from three different litters, with 5-7 pups per litter, closed circles); 3. control animals chronically treated with NAP for the first two weeks of life (14 animals derived from three different litters, open triangles); and 4. ApoE-deficient mice chronically treated with NAP for the first two weeks of life (19 animals derived from three different litters, open rectangles). The figure depicts latency (of the second daily trial), measured in seconds, to reach the hidden platform 0.5 min. after being on it. Tests were performed over five consecutive days, and then with a two day delay tested for one additional day. ApoE=ApoE-deficient animals. There was no differences between animals treated with vehicle and untreated animals (data not shown). Statistical comparisons shown were made: 1. between ApoE-deficient and controls; 2. between ApoE-treated with NAP and ApoE-treated with vehicle; and 3. between control-treated with NAP and control-treated with vehicle (*P<0.001; **P<0.03; ***P<0.002). […]"}},
  "note": "Values joined by “and” are separate entries in the source; they are usually repeats but may differ in a detail not shown here. Equal entries are not always repeated. “Also recorded” adds a separate entry of the source.",
  "data": [
    {"substance": "Asn-Ala-Pro-Val-Ser-Ile-Pro-Gln [NAP]", "values": [
      {"measurement": "concentrations of significant neuroprotection against tetrodotoxin", "setting": "[1]", "result": "10^−18-10^−14 M"},
      {"measurement": "concentrations of significant neuroprotection against β-amyloid", "setting": "[2]", "result": "10^−16 M and 10^−15 M"},
      {"measurement": "concentrations of significant neuroprotection against NMDA", "setting": "[3]", "result": "> 10^−16 M"},
      {"measurement": "concentrations of significant neuroprotection against gp120", "setting": "[4]", "result": "10^−15-10^−10 M"},
      {"measurement": "protection from naturally occurring cell death", "setting": "[5]", "result": "protected neurons"},
      {"measurement": "relative activity in structure-activity studies", "setting": "[6]", "result": "most active peptide"},
      {"measurement": "peak optimum concentrations", "setting": "[6]; two peaks, listed as NAPVSIPQ", "result": "10^−16-10^−14 M and 10^−11-10^−10 M"},
      {"measurement": "learning and memory in water maze", "setting": "AF64A-treated animals", "result": "showed improvement in their learning and memory capacities and behaved as control animals"},
      {"measurement": "brain ChAT activity compared with inbred C57B6 mice", "setting": "[7]", "result": "not significantly different; also recorded: indistinguishable from controls"},
      {"measurement": "brain ChAT activity compared with vehicle-treated or untreated ApoE-deficient mice", "setting": "[7]", "result": "significantly improved"},
      {"measurement": "water maze performance (latency to hidden platform, second daily trial)", "setting": "ApoE-deficient mice; ApoE-deficient mice, treated first two weeks of life, tested from 21 days", "result": "performed as well as control animals; also recorded: ameliorated"},
      {"measurement": "water maze performance (latency to hidden platform, second daily trial)", "setting": "ApoE-deficient mice; control animals chronically treated for the first two weeks of life", "result": "improved their performance"}
    ]}
  ]
}
